Laboratory results as given in patent US20220220145A1, “CYCLIC PHOSPHATE COMPOUNDS” (priority 2019, published 2022).

Assay: Tissue distribution following oral administration of reference compounds and the disclosed compounds
Format: in vivo
Settings: rats; for levels of nucleoside phosphates in the liver compared to the reference compounds: oral administration, statement in words summarising Table 1
Protocol: The liver specificity of the disclosed compounds is compared relative to a corresponding active compound in liver and other organs that could be targets of toxicity.
Reference compounds and the cyclic phosphate compounds were administered at 5-50 mg/kg to fasted rats by oral gavage. Plasma concentrations of the metabolites, and parent compounds in circulation and in the hepatic portal vein were determined by HPLC-UV, and the liver, small intestine, and other organ concentrations were measured by LC-MS using standard chromatography methods.

| SMILES | levels of nucleoside phosphates in the liver compared to the reference compounds | NUCHPV: ratio of new compound vs corresponding reference compound in nucleoside level in hepatic portal vein (HPV) (one hour after oral administration at 5 mg/kg nucleoside equivalent dose, hepatic portal vein) | NMPliver: ratio of new compound vs corresponding reference compound in nucleoside monophosphate level in the liver (one hour after oral administration at 5 mg/kg nucleoside equivalent dose, liver) | NUCblood: ratio of new compound vs corresponding reference compound in nucleoside level in systemic blood (one hour after oral administration at 5 mg/kg nucleoside equivalent dose, systemic blood) |
| --- | --- | --- | --- | --- |
| [2H]C([2H])([2H])c1cn([C@H]2C[C@@H]3OP(=O)(OCc4ccccc4C(=O)OCCC)OC[C@H]3O2)c(=O)[nH]c1=O (stereo partly drawn) [Compound 106, Propyl 2-((((4aR,6R,7aS)-6-(5-(methyl-d3)-2,4-dioxo-3,4-dihydropyrimidin-1(2H)-yl)-2-oxidotetrahydro-4H-furo[3,2-d][1,3,2]dioxaphosphinin-2-yl)oxy)methyl)benzoate] | substantially higher levels | – | – | – |
| CC(C)OC(=O)c1ccccc1COP1(=O)OC[C@H]2O[C@@H](n3ccc(=O)[nH]c3=O)[C@](C)(F)[C@@H]2O1 (stereo partly drawn) [Compound 107, Isopropyl 2-((((4aR,6R,7R,7aR)-6-(2,4-dioxo-3,4-dihydropyrimidin-1(2H)-yl)-7-fluoro-7-methyl-2-oxidotetrahydro-4H-furo[3,2-d][1,3,2]dioxaphosphinin-2-yl)oxy)methyl)benzoate] | substantially higher levels | – | – | – |
| [2H]C([2H])([2H])c1cn([C@H]2C[C@H](O)[C@@H](CO)O2)c(=O)[nH]c1=O [Thymidine-d3] | – | 1.0 | 1.0 | 1.0 |
